Experimental findings from patent US11779559B2, “Compositions for treating fungal and bacterial biofilms and methods of using the same” (priority 2017, dated 2023) are described below.

The subject of assay [1] is S. aureus. Nature of the assay: Disruption biofilm assay, bacterial. The conditions noted are these: Staphylococcus aureus, 24 h; disruption assay; S. aureus; 1% amino acid (unless specifically noted); p≤0.001; read-out: Reduce B Biofilm. It counts as cell-based, Staphylococcus aureus. On the procedure: (§1) Two types of biofilm assays were performed: a sustained inhibition assay and a disruption assay. The sustained inhibition assay assesses the compound's ability to prevent biofilm development throughout all stages of biofilm formation, while the disruption assay assesses the compound's ability to break up an existing mature biofilm. These assays are described in detail in the following article: Lohse, M. B., Gulati, M., Valle Arevalo, A., Fishburn, A., Johnson, A. D., and Nobile, C. […] Antimicrobial Agents and Chemotherapy 61: e02749-16.
(§2) All bacterial biofilm solutions were prepared in Trypic Soy Broth (TSB), supplemented with 1% glucose (henceforth referred to as TSB-G). All subsequent procedures were performed in a manner that maintained sterility. A solution of each amino acid to be tested was prepared in weight to volume concentrations ranging from 0.1-5.0%. Amino acids were also tested in combinations. Compound solutions were homogenized with gentle agitation in the dark (4° C., 24 hours) before use.
(§3) Bacterial strains were streaked on Blood Agar plates (5% sheep blood in Tryptic Soy Agar) and incubated at 37° C. for 24 hours. A single colony from each strain to be tested was inoculated in a TSB broth and grown for 12 hours, at 37° C. with shaking (225 rpm). For the bacterial biofilm inhibition assays, 1 μL of saturated overnight cell culture was added to either 80 μL of TSB-G, or TSB-G supplemented with the amino acid compound solution to be tested, in a 384-well plate. The cells were allowed to adhere to the plate for 60 minutes at 37° C. without shaking. The media was carefully aspirated and 80 μL of TSB-G, or TSB-G supplemented with the amino acid compound solution was added to the plate. The plate was further incubated for 24 hours at 37° C. without shaking. Media was carefully aspirated and the biofilm was measured by optical density at 600 nm. Eight or twelve replicates were performed for each tested condition and the reported values are normalized to the control (TSB-G media only). For the bacterial biofilm disruption assays, 80 μL of TSB-G was added to the plate, along with 1 μL of overnight cell culture. The cells were allowed to adhere to the plate for 60 minutes at 37° C. with no shaking. The media was carefully aspirated and 80 μL of TSB-G was added to the plate. The plate was further incubated for 24 hours at 37° C. with no shaking. Media was carefully aspirated from the mature biofilm and 80 μL of TSB-G, or TSB-G supplemented with the amino acid to be tested, was gently added to the plate. The plate was further incubated for 24 hours at 37° C. without shaking. Media was aspirated and the biofilm was measured by optical density at 600 nm. Twelve replicates were performed for each tested condition and the reported values are normalized to the control (TSB-G media only).

Assay [2] relates to S. aureus. Nature of the assay: Sustained inhibition biofilm assay, bacterial. The conditions noted are these: sustained inhibition assay; S. aureus; 1% amino acid (unless specifically noted); p≤0.001. It is filed as cell-based, Staphylococcus aureus. On the procedure: as §1, §2, §3

Molecules are shown by their SMILES.

For the molecule `N[C@@H](CC(=O)O)C(=O)O` [Aspartic Acid, L-aspartic acid], in assay [1], the inhibition at 1 % is over 30%. Also, the “Reduce B Biofilm” value in assay [2] was “●● (two dots [ie. ••] signifies major effect (greater than about 30% change))”.
